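Each compound was tested at five concentrations against cells in 96-well plates for 48 hours. TGI is the concentration that stops growth completely.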
Assays:
Experiment in all cases: NCI-60 cell line screen, 48 h
CCRF-CEM leukemia = test system: CCRF-CEM leukemia
SF-539 CNS = test system: SF-539 CNS
NCI-H460 lung = test system: NCI-H460 lung
SNB-19 CNS = test system: SNB-19 CNS
OVCAR-4 ovarian = test system: OVCAR-4 ovarian
U251 CNS = test system: U251 CNS
ACHN renal = test system: ACHN renal
COLO 205 colon = test system: COLO 205 colon
SK-MEL-5 melanoma = test system: SK-MEL-5 melanoma
OVCAR-5 ovarian = test system: OVCAR-5 ovarian
TK-10 renal = test system: TK-10 renal
HCT-15 colon = test system: HCT-15 colon
M14 melanoma = test system: M14 melanoma
HT29 colon = test system: HT29 colon
KM12 colon = test system: KM12 colon
SK-MEL-2 melanoma = test system: SK-MEL-2 melanoma
UO-31 renal = test system: UO-31 renal
NCI-H522 lung = test system: NCI-H522 lung
SK-OV-3 ovarian = test system: SK-OV-3 ovarian
LOX IMVI melanoma = test system: LOX IMVI melanoma

| Structure (SMILES) | TGI (CCRF-CEM leukemia) [µM] | TGI (SF-539 CNS) [µM] | TGI (NCI-H460 lung) [µM] | TGI (SNB-19 CNS) [µM] | TGI (OVCAR-4 ovarian) [µM] | TGI (U251 CNS) [µM] | TGI (ACHN renal) [µM] | TGI (COLO 205 colon) [µM] | TGI (SK-MEL-5 melanoma) [µM] | TGI (OVCAR-5 ovarian) [µM] | TGI (TK-10 renal) [µM] | TGI (HCT-15 colon) [µM] | TGI (M14 melanoma) [µM] | TGI (HT29 colon) [µM] | TGI (KM12 colon) [µM] | TGI (SK-MEL-2 melanoma) [µM] | TGI (UO-31 renal) [µM] | TGI (NCI-H522 lung) [µM] | TGI (SK-OV-3 ovarian) [µM] | TGI (LOX IMVI melanoma) [µM] |
| --- | --- | --- | --- | --- | --- | --- | --- | --- | --- | --- | --- | --- | --- | --- | --- | --- | --- | --- | --- | --- |
| O=C(NCCN(CCNC(=O)c1cccc(=O)n1O)CCNC(=O)c1cccc(=O)n1O)c1cccc(=O)n1O | > 100 | > 100 | > 100 | > 100 | > 100 | > 100 | > 100 | > 100 | > 100 | > 100 | > 100 | > 100 | > 100 | > 100 | > 100 | > 100 | > 100 | > 100 | > 100 |  |
| N#CCCN(CCC#N)c1ccc(/C=C(/NC(=O)Nc2ccccc2Cl)NC(=O)c2cc([N+](=O)[O-])ccc2Cl)cc1 | > 100 | > 100 |  | > 100 | > 100 | > 100 | > 100 | > 100 | > 100 | > 100 | > 100 | > 100 | > 100 |  | > 100 | > 100 | > 100 | > 100 | > 100 | > 100 |
| COc1ccc(N[C@@H]2c3cc4c(cc3C(c3cc(OC)c(O)c(OC)c3)[C@H]3C(=O)OCC32)OCO4)cc1OC (stereo partly drawn) | > 39.3 |  |  | > 79.2 | > 100 | > 67.5 |  | > 36.3 | > 31.7 | > 100 |  | > 100 |  | > 20.7 | > 21.8 | > 30.4 | > 100 | > 25.3 | > 52.1 | > 100 |
| CCCCCC(/C=C/c1ncccc1OCCCCCC(=O)O)=N\NC1=NCCN1 | > 100 | > 100 | > 100 | > 100 | > 100 |  | > 100 | > 100 |  | > 100 | > 100 | > 100 | > 100 | > 100 | > 100 | > 100 | > 100 | > 100 | > 100 | > 100 |
| CN(C(=O)c1ccccc1)c1ccc2c(c1)C(=O)c1ccccc1C2=O | > 100 |  | > 100 |  | > 100 | > 100 | > 100 | > 100 |  | > 100 | > 100 | > 100 | > 100 | > 100 | > 100 | > 100 | > 100 | > 100 | > 100 | > 100 |
| S=C1Cc2c(-c3ccccc3)cc(-c3ccc(Cl)cc3)nc2-c2ccccc2N1 | > 100 | 10.8 | > 100 | 4.14 | 1.71 | 2.34 | 2.69 | > 42 | > 100 | 51.4 | 8.41 | > 54.7 | > 38.5 | 15.2 | 51.3 | 20.9 | > 24 | > 24.2 | 7.26 | > 46.8 |
| O=S(=O)(CF)OCCCCOS(=O)(=O)CF | > 100 | > 100 | > 100 | > 100 |  | > 100 | > 100 | > 100 | > 100 |  | > 100 | > 100 | > 100 | > 100 |  | > 100 | > 100 | > 100 | > 100 | > 100 |
| C[Si](C)(C)/C=C/CN1C(=O)CCC1=O | > 100 | > 100 | > 100 | > 100 |  | > 100 | > 100 | > 100 | > 100 | > 100 | > 100 | > 100 | > 100 | > 100 | > 100 | > 100 | > 100 | > 100 | > 100 | > 100 |
